Assays:
Assay in all cases: selective drug sensitivity score (sDSS, relative to normal bone marrow) (sDSS (score)); higher = more potent and effective on the cell line relative to normal bone marrow cells
Details in all cases: 72 h
P12-ICHIKAWA = test system: P12-ICHIKAWA
HAL-01 = test system: HAL-01
COG-LL-402h = test system: COG-LL-402h
MN-60 = test system: MN-60
DND-41 = test system: DND-41
RCH-ACV = test system: RCH-ACV
COG-LL-355h = test system: COG-LL-355h
KOPN-8 = test system: KOPN-8
KASUMI-9 = test system: KASUMI-9
COG-LL-332h = test system: COG-LL-332h
MHH-CALL-2 = test system: MHH-CALL-2
ALL-SIL = test system: ALL-SIL
MOLT-16 = test system: MOLT-16
NALM-16 = test system: NALM-16
MHH-CALL-3 = test system: MHH-CALL-3
MOLT-4 = test system: MOLT-4
TMD5 = test system: TMD5
TANOUE = test system: TANOUE
REH = test system: REH
RPMI-8402 = test system: RPMI-8402
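Also: ALL cell lines in 384-well plates, five doses spanning 10,000-fold, each plate scaled between vehicle and 100 µmol/L benzalkonium chloride controls, sDSS an adapted area-under-curve metric.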

SMILES | selective drug sensitivity score (P12-ICHIKAWA) | selective drug sensitivity score (HAL-01) | selective drug sensitivity score (COG-LL-402h) | selective drug sensitivity score (MN-60) | selective drug sensitivity score (DND-41) | selective drug sensitivity score (RCH-ACV) | selective drug sensitivity score (COG-LL-355h) | selective drug sensitivity score (KOPN-8) | selective drug sensitivity score (KASUMI-9) | selective drug sensitivity score (COG-LL-332h) | selective drug sensitivity score (MHH-CALL-2) | selective drug sensitivity score (ALL-SIL) | selective drug sensitivity score (MOLT-16) | selective drug sensitivity score (NALM-16) | selective drug sensitivity score (MHH-CALL-3) | selective drug sensitivity score (MOLT-4) | selective drug sensitivity score (TMD5) | selective drug sensitivity score (TANOUE) | selective drug sensitivity score (REH) | selective drug sensitivity score (RPMI-8402)
CCN1C(=O)CNc2ncc(-c3ccc(-c4nc[nH]n4)nc3C)nc21 [CC-115] (top concentration 10000 nM) | 1.04 | 2.54 | 3.44 | 1.54 | 6.74 | 17.5 | 1.44 | 17.5 | 4.54 | 2.54 | 8.34 | 1.34 | 4.74 | 1.34 | 1.34 | 3.04 | -1.66 | -5.46 | 0.44 | 0.94
COc1ccc(Cn2ccc3ccc(C(=O)NO)cc32)cc1 (top concentration 10000 nM) | 2.34 | 5.84 | 5.44 | 3.44 | 2.94 | 1.54 | 0.74 | 8.74 | 2.24 | 8.14 | 6.24 | 2.64 | 4.04 | 2.44 | 1.74 | 1.44 | -0.96 | 1.34 | 2.54 | 1.54
CCCCc1nc2cc(/C=C/C(=O)NO)ccc2n1CCN(CC)CC [Pracinostat] (top concentration 10000 nM) | 5.08 | 1.88 | 13 | -1.42 | 3.48 | 14.6 | 3.58 | 8.68 | 8.18 | 0.58 | 8.98 | 5.18 | 6.28 | 0.98 | 16.5 | 3.48 | 5.78 | -7.72 | 0.38 | 5.08
Nc1nc(Cl)nc2c1ncn2[C@@H]1O[C@H](CO)[C@@H](O)[C@@H]1F [Clofarabine] (top concentration 10000 nM) | 2.1 | 2.7 | 8.1 | -7.1 | 1.4 | 6.8 | 3 | 6.7 | 7.3 | 4.3 | 9.2 | 4.9 | 4.4 | -5.6 | 10.9 | 3.7 | -26.5 | -18.6 | 2.3 | 3.5
CCN(CC)Cc1ccc2cc(COC(=O)Nc3ccc(C(=O)NO)cc3)ccc2c1 [Givinostat] (top concentration 1000 nM) | 3.1 | -2.4 | 12.9 | -1.2 | 2.4 | 9.8 | 5 | 13.5 | 7.6 | -0.3 | 8.6 | 8.6 | 5.1 | -1 | 15.6 | 2.1 | -0.1 | -4.5 | 0.2 | 3.9
COc1cc2c(Oc3ccc(NC(=O)C4(C(=O)Nc5ccc(F)cc5)CC4)cc3F)ccnc2cc1OCCCN1CCOCC1 [Foretinib] (top concentration 1000 nM) | 1.34 | 3.34 | 1.64 | -4.46 | -4.46 | 0.44 | 0.34 | 7.84 | -0.06 | 4.74 | 7.04 | 13.6 | 0.24 | 1.04 | -3.56 | 0.64 | 2.64 | -4.46 | 0.24 | 0.34
CNC(=O)c1cc(Oc2ccc(NC(=O)Nc3ccc(Cl)c(C(F)(F)F)c3)cc2)ccn1 [Sorafenib] (top concentration 1000 nM) | 0 | 2.9 | 0 | 0 | 0 | 1.4 | 0 | 2 | 0 | 0.1 | 0.3 | 0 | 0 | 0 | 0 | 0 | 0 | 0 | 0.2 | 0
Cc1ccc(C(=O)Nc2ccc(Oc3cc4cnn(C)c4cc3-c3cn[nH]c3)c(F)c2)c(=O)n1-c1ccc(F)cc1 [Merestinib] (top concentration 1000 nM) | -0.62 | 5.68 | -0.62 | 1.38 | -0.62 | 1.08 | -0.62 | -0.62 | 0.18 | -0.62 | 9.68 | 0.28 | -0.62 | 2.58 | -0.62 | -0.62 | -0.62 | -0.62 | -0.62 | -0.62
CC(C)c1cc(-c2n[nH]c(=O)n2-c2ccc3c(ccn3C)c2)c(O)cc1O [Ganetespib] (top concentration 1000 nM) | -0.96 | 0.74 | 4.54 | -5.06 | 2.94 | 3.44 | 1.34 | 10.1 | 0.14 | 6.64 | -1.36 | 1.14 | 4.74 | -2.76 | 6.64 | 3.14 | -5.36 | -8.36 | 0.54 | -1.66
